{"source": "paper PMC10350923", "about": "“In Vitro and In Vivo Biological Activities of Dipicolinate Oxovanadium(IV) Complexes” (Journal of Medicinal Chemistry, 2023)", "key": {"[1]": {"tested_on": "HCT116-DoxR (doxorubicin-resistant colorectal carcinoma cell line)", "assay": "MTS cell viability assay, HCT116-DoxR;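 note: MTS colorimetric quantification of viable cells, with loss of viability tracked as complex concentration rises, in DMEM-grown HCT116-DoxR, a line whose resistance involves P-glycoprotein efflux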", "procedure": "(§1) To assess the cytotoxicity of vanadium complexes in tumor and healthy cells, the MTS assay, a colorimetric method that allows the quantification of viable cells present in solution,[71] was performed.\nCell culture and maintenance\n(§2) The A2780 cancer cell line (ovarian carcinoma) was purchased from Sigma-Aldrich (Madrid, Spain)\n(§3) while HCT116 cancer cell line (colorectal carcinoma) and the normal human primary dermal\n(§4) fibroblasts were obtained from American Type Culture Collection (ATCC®, Manassas, VA, USA).\n(§5) HCT116 Dox-resistant cell line (HCT116-DoxR) was derived from HCT116 parental cells, as\n(§6) All cells were cultured in Dulbecco’s modified Eagle medium (DMEM), except the A2780 cell line\n(§7) which was cultured in RPMI (Roswell Park Memorial Institute) medium. Both media were\n(§8) supplemented with 10% (v/v) fetal bovine serum (FBS) and 1% (v/v) of a Pen/Strep\n(§9) (Penicillin/Streptomycin) solution. HCT116-DoxR cell medium was additionally supplemented with\n(§10) All media and supplements were purchased from Thermo Fischer Scientific (Waltham, Massachusetts, USA).\n(§11) (SANYO CO2 Incubator, Electric Biomedical Co., Osaka, Japan).\n(§12) HCT116, HCT116-DoxR and A2780 cancer cell lines and normal human primary fibroblasts were\n(§13) used in cellular viability assays. Cells were seeded in a density of 0.75×10^5 cells/mL into 96 well-\n(§14) After the 24 h of incubation, complexes were\n(§15) weight and immediately solubilized in 100% (v/v) DMSO and then, diluted for the final concentration\n(§16) with cell culture medium. The medium in each 96 well-plates will be replaced by fresh medium\n(§17) containing each vanadium complex (concentrations ranging from 0.01 µM to 50 µM). Culture medium\n(§18) with 0.1% (v/v) DMSO and 0.4 µM Dox were used as negative and positive controls, respectively."}, "[2]": {"tested_on": "normal human primary dermal fibroblasts", "assay": "MTS cell viability assay, fibroblasts", "procedure": "as §1\nCell culture and maintenance\nas §2, §3, §4, §5, §6, §7, §8, §9, §10, §11, §12, §13, §14, §15, §16, §17, §18"}, "[3]": {"tested_on": "A2780 (ovarian carcinoma cell line)", "assay": "MTS cell viability assay, A2780", "assay_type": "cell-based, human", "conditions": "48 h of exposure, mean ± SEM"}, "[4]": {"tested_on": "HCT116 (colorectal carcinoma cell line)", "assay": "MTS cell viability assay, HCT116", "assay_type": "cell-based, human", "conditions": "48 h of exposure, mean ± SEM"}, "[5]": {"assay": "n-octanol/PBS buffer partition coefficient, shake-flask, UV-vis", "conditions": "room temperature", "procedure": "The lipophilicity of V(IV) complexes was investigated using the classical shake-flash method at room temperature in the two-phase system of immiscible solvents n-octanol/PBS buffer.[69],[70] The transfer of V(IV) compounds from the aqueous environment to the organic phase was monitored by UV–vis spectroscopy.\nThe n-octanol/PBS buffer partition coefficients (logP) were determined by shake-flash approach, and\nthe transfer of V(IV) compounds from the aqueous environment to the organic phase was monitored\nby UV-Vis spectroscopy5,6. Solutions of 1–10 of concentrations in the range 10-100 M were prepared\nin PBS buffer saturated with n-octanol from the freshly-prepared stock solution in DMSO (5mM or 50\nmM), and their UV-Vis spectra were recorded. The solution of 1–10 in aqueous buffer (3 ml) were\nmixed with n-octanol saturated with pH 7.4 aqueous buffer (3 ml), and the obtained mixtures were\nstirred in a mechanical shaker for 30 min. The mixtures were allowed to stand at room temperature for\n24 h, and after this time, the aqueous phases were separated, and the concentrations of 1–10 were\ndetermined by measuring their UV-Vis spectra. For each complex, the highest energy absorption band was taken into consideration to determine the sample concentration."}, "[6]": {"conditions": "Homo sapiens, 48 h, read-out: IC50 HCT116-DoxR (ligands)"}, "[7]": {"conditions": "Homo sapiens, Fibroblast, 48 h, read-out: IC50 fibroblasts (ligands)"}, "[8]": {"conditions": "read-out: IC50 HCT116-DoxR, 48 h of exposure, MTS, mean ± SEM"}, "[9]": {"conditions": "read-out: IC50 fibroblasts, 48 h of exposure, MTS, mean ± SEM"}, "[10]": {"conditions": "read-out: IC50 HCT116-DoxR (ligands), free ligands, 48 h of exposure, mean ± SEM"}, "[11]": {"conditions": "read-out: IC50 fibroblasts (ligands), free ligands, 48 h of exposure, mean ± SEM"}}, "note": "Several values for one entry are separate records, joined by “and”; a condition that tells them apart may be missing. Equal values may be shown once. Read-outs that look alike come from different tables or passages of the source."}
{"molecule": "c1ccc(-c2ccnc3c2ccc2c(-c4ccccc4)ccnc23)cc1", "note": "[4,7-Ph2-phen, 4,7-diphenyl-1,10-phenanthroline]", "values": [{"measurement": "IC50", "setting": "[1]; [6]", "value": "0.3 ± 0.02", "unit": "µM"}, {"measurement": "IC50", "setting": "[2]; [7]", "value": "4.4 ± 0.13", "unit": "µM"}]}
{"molecule": "Clc1ccnc2c1ccc1c(Cl)ccnc12.O=C1[O][V](=[O])[O]C(=O)c2cccc1n2", "note": "[complex 4, [VO(dipic)(4,7-Cl2-phen)]]", "values": [{"measurement": "IC50", "setting": "[1]; [8]", "value": "~9 µM and 9 µM"}, {"measurement": "IC50", "setting": "[3]", "value": "2.2 ± 0.02", "unit": "µM"}, {"measurement": "IC50", "setting": "[2]; [9]", "value": "9.2 ± 0.01", "unit": "µM"}, {"measurement": "IC50", "setting": "[4]", "value": "8.8 ± 0.02", "unit": "µM"}, {"measurement": "log P", "setting": "[5]", "value": 0.44}]}
{"molecule": "c1ccc(-c2ccccn2)nc1", "note": "[Bipy, 2,2′-bipyridine]", "values": [{"measurement": "IC50", "setting": "[1]; [6]", "value": "> 50", "unit": "µM"}, {"measurement": "IC50", "setting": "[2]; [7]", "value": "> 50", "unit": "µM"}]}
{"molecule": "c1ccc(-c2nc3ccccc3[nH]2)nc1", "note": "[Pybim, 2-(2-pyridyl)benzimidazole]", "values": [{"measurement": "IC50", "setting": "[1]; [6]", "value": "27.1 ± 0.04", "unit": "µM"}, {"measurement": "IC50", "setting": "[2]; [7]", "value": "~50", "unit": "µM"}]}
{"molecule": "O=C1C(=O)c2cccnc2-c2ncccc21", "note": "[phendione]", "values": [{"measurement": "IC50", "setting": "[1]; [6]", "value": "0.7 ± 0.01", "unit": "µM"}, {"measurement": "IC50", "setting": "[2]; [7]", "value": "1.8 ± 0.05", "unit": "µM"}]}
{"molecule": "O=C1[O][V](=[O])[O]C(=O)c2cccc1n2.c1c[nH]cn1.c1c[nH]cn1", "note": "[complex 10, [VO(dipic)(im)2]]", "values": [{"measurement": "IC50", "setting": "[1]; [8]", "value": "> 50", "unit": "µM"}, {"measurement": "IC50", "setting": "[3]", "value": "14.7 ± 0.02", "unit": "µM"}, {"measurement": "IC50", "setting": "[2]; [9]", "value": "20.1 ± 0.05", "unit": "µM"}, {"measurement": "IC50", "setting": "[4]", "value": "> 50", "unit": "µM"}, {"measurement": "log P", "setting": "[5]", "value": "–1.28"}]}
{"molecule": "c1cnc2c(c1)ccc1cccnc12", "note": "[Phen, 1,10-phenanthroline]", "values": [{"measurement": "IC50", "setting": "[1]; [6]", "value": "1.6 ± 0.03", "unit": "µM"}, {"measurement": "IC50", "setting": "[2]; [7]", "value": "> 50", "unit": "µM"}]}
{"molecule": "O=C1[O][V](=[O])[O]C(=O)c2cccc1n2.c1ccc2c(c1)Sc1ccccc1N2c1ccnc2c1ccc1c(N3c4ccccc4Sc4ccccc43)ccnc12", "note": "[complex 7, [VO(dipic)(4,7-(phtiaz)2-phen)]]", "values": [{"measurement": "IC50", "setting": "[1]; [8]", "value": "> 50", "unit": "µM"}, {"measurement": "IC50", "setting": "[3]", "value": "3.1 ± 0.03", "unit": "µM"}, {"measurement": "IC50", "setting": "[2]; [9]", "value": "21.7 ± 0.08", "unit": "µM"}, {"measurement": "IC50", "setting": "[4]", "value": "> 50", "unit": "µM"}, {"measurement": "log P", "setting": "[5]", "value": 0.62}]}
{"molecule": "O=C(O)c1cccc(C(=O)O)n1", "note": "[Dipic, dipicolinate]", "values": [{"measurement": "IC50", "setting": "[1]; [10]", "value": "> 50", "unit": "µM"}, {"measurement": "IC50", "setting": "[2]; [11]", "value": "> 50", "unit": "µM"}]}
{"molecule": "c1ccc2c(c1)Sc1ccccc1N2c1ccnc2c1ccc1c(N3c4ccccc4Sc4ccccc43)ccnc12", "note": "[4,7-(phtiaz)2-phen, 4,7-phenothiazine-1,10-phenanthroline]", "values": [{"measurement": "IC50", "setting": "[1]; [10]", "value": "> 50", "unit": "µM"}, {"measurement": "IC50", "setting": "[2]; [11]", "value": "> 50", "unit": "µM"}]}
{"molecule": "O=C1[O][V](=[O])[O]C(=O)c2cccc1n2.c1ccc(-c2nc3ccccc3[nH]2)nc1", "note": "[complex 2, [VO(dipic)(pybim)]]", "values": [{"measurement": "IC50", "setting": "[1]; [8]", "value": "31.4 ± 0.03", "unit": "µM"}, {"measurement": "IC50", "setting": "[3]", "value": "6.7 ± 0.02", "unit": "µM"}, {"measurement": "IC50", "setting": "[2]; [9]", "value": "15.7 ± 0.04", "unit": "µM"}, {"measurement": "IC50", "setting": "[4]", "value": "> 50", "unit": "µM"}, {"measurement": "log P", "setting": "[5]", "value": "–0.10"}]}
{"molecule": "CC(C)(C)OO", "note": "[TBHP, tert-butyl hydroperoxide, reference compound]", "values": [{"measurement": "IC50", "setting": "[1]; Homo sapiens, 48 h, read-out: IC50 HCT116-DoxR", "value": 42, "unit": "µM"}]}
{"molecule": "O=C1[O][V](=[O])[O]C(=O)c2cccc1n2.c1ccc(-c2ccccn2)nc1", "note": "[complex 9, [VO(dipic)(bipy)]]", "values": [{"measurement": "IC50", "setting": "[1]; [8]", "value": "39.2 ± 0.09", "unit": "µM"}, {"measurement": "IC50", "setting": "[3]", "value": "4.8 ± 0.02", "unit": "µM"}, {"measurement": "IC50", "setting": "[2]; [9]", "value": "16.2 ± 0.04", "unit": "µM"}, {"measurement": "IC50", "setting": "[4]", "value": "44 ± 0.04", "unit": "µM"}, {"measurement": "log P", "setting": "[5]", "value": 0.13}]}
{"molecule": "O=C1[O][V](=[O])[O]C(=O)c2cccc1n2.c1ccc(-c2ncc[nH]2)nc1", "note": "[complex 1, [VO(dipic)(pyim)]]", "values": [{"measurement": "IC50", "setting": "[1]; [8]", "value": "> 50", "unit": "µM"}, {"measurement": "IC50", "setting": "[3]", "value": "15 ± 0.02", "unit": "µM"}, {"measurement": "IC50", "setting": "[2]; [9]", "value": "20.2 ± 0.04", "unit": "µM"}, {"measurement": "IC50", "setting": "[4]", "value": "> 50", "unit": "µM"}, {"measurement": "log P", "setting": "[5]", "value": "–0.04"}]}
{"molecule": "COc1ccnc2c1ccc1c(OC)ccnc12", "note": "[4,7-(CH3O)2-phen, 4,7-dimethoxy-1,10-phenanthroline]", "values": [{"measurement": "IC50", "setting": "[1]; [6]", "value": "0.3 ± 0.05", "unit": "µM"}, {"measurement": "IC50", "setting": "[2]; [7]", "value": "10 ± 0.01", "unit": "µM"}]}
{"molecule": "c1ccc(-c2ncc[nH]2)nc1", "note": "[Pyim, 2-(1H-imidazol-2-yl)pyridine]", "values": [{"measurement": "IC50", "setting": "[1]; [6]", "value": "> 50", "unit": "µM"}, {"measurement": "IC50", "setting": "[2]; [7]", "value": "> 50", "unit": "µM"}]}
{"molecule": "Clc1ccnc2c1ccc1c(Cl)ccnc12", "note": "[4,7-Cl2-phen, 4,7-dichloro-1,10-phenanthroline]", "values": [{"measurement": "IC50", "setting": "[1]; [6]", "value": "16.4 ± 0.01", "unit": "µM"}, {"measurement": "IC50", "setting": "[2]; [7]", "value": "17.5 ± 0.07", "unit": "µM"}]}
{"molecule": "O=C1C(=O)c2cccnc2-c2ncccc21.O=C1[O][V](=[O])[O]C(=O)c2cccc1n2", "note": "[complex 3, [VO(dipic)(phendione)]]", "values": [{"measurement": "IC50", "setting": "[1]; [8]", "value": "1.3 ± 0.07", "unit": "µM"}, {"measurement": "IC50", "setting": "[3]", "value": "0.2 ± 0.02", "unit": "µM"}, {"measurement": "IC50", "setting": "[2]; [9]", "value": "0.7 ± 0.02", "unit": "µM"}, {"measurement": "log P", "setting": "[5]", "value": "–0.16"}]}
